Test results: ChEMBL document CHEMBL3886414, “Bicarbocyclic and tricarbocyclic ethynyl derivatives and uses of same” (2015)

Target: Metabotropic glutamate receptor 5 (Homo sapiens, UniProt P41594)
Experiment: Calcium Mobilization Assay: The rmGluR5 or hmGluR5 was stably expressed in a HEK 293 cell line and gown in Dulbecco's Modified Eagle Medium (DMEM) (Invitrogen, Carlsbad, Calif.) with supplements (10% bovine calf serum, 4 mM glutamine, 100 units/mL penicillin, 100 μg/mL streptomycin and 0.75 mM G1418) at 37° C., 5% CO2. Twenty-four hours prior to assay, cells were seeded into 384-well black wall microtiter plates coated with poly-D-lysine. Just prior to assay, media was aspirated and cells dye-loaded (25 μL/well) with 3 μM Fluo-4/0.01% pluronic acid in assay buffer (Hank's Balanced Saline Solution (HBSS)): 150 mM NaCl, 5 mM KCl, 1 mM CaCl2, 1 mM MgCl2, plus 20 mM N-2-Hydroxyethylpiperazine-N′-2-ethanesulfonic acid (HEPES), pH 7.4, 0.1% bovine serum albumin (BSA) and 2.5 mM probenecid) for 1 hour in 5% CO2 at 37° C. After excess dye was discarded, cells were washed in assay buffer and layered with a final volume equal to 30 μL/well. Basal fluorescence is monitored in a fluorometri
Type: functional, cell-based, HEK293

Sequence of Metabotropic glutamate receptor 5 (P41594 whole entry): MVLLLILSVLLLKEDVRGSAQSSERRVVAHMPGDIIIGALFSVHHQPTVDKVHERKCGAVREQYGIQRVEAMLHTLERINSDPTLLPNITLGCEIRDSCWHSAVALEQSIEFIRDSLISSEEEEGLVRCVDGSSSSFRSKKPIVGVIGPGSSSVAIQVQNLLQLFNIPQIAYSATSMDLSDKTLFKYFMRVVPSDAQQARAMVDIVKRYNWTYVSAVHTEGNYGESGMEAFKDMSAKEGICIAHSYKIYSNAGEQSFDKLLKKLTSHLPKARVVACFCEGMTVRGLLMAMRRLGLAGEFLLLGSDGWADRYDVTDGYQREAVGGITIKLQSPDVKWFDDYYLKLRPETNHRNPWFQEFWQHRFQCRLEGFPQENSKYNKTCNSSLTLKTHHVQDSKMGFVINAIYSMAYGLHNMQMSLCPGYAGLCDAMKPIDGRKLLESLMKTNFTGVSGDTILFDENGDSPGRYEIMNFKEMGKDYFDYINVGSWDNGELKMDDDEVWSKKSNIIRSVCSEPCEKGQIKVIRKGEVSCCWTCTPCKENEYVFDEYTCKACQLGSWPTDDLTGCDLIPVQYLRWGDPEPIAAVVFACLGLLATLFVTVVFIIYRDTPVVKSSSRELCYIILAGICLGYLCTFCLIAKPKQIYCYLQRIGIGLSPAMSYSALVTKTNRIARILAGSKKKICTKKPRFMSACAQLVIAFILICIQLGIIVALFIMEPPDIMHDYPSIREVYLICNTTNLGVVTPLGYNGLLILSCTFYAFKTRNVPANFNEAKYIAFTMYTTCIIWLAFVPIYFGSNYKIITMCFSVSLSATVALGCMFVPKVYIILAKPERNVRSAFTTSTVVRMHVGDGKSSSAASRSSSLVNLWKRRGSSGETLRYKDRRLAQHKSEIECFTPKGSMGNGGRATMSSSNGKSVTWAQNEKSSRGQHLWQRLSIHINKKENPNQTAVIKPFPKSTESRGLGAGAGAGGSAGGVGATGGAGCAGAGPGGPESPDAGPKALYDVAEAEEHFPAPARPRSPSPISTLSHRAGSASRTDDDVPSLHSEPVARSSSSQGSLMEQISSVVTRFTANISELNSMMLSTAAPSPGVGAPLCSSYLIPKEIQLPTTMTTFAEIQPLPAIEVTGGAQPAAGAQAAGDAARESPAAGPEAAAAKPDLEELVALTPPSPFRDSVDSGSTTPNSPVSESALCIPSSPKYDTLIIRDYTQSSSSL

In the case of `O=C(NC12CCCC(C#Cc3cccc(F)c3)(CC1)C2)c1cnccn1` (stereo unspecified), the IC50 is reported as 1.2 nM.

`Cc1cccc(C#C[C@]23CCC[C@](NC(=O)c4ccccn4)(CC2)C3)n1` gave an IC50 of 5.3 nM.

For `Cc1ccc(C#CC23CC4CC(C2)CC(NC(=O)c2cnccn2)(C4)C3)cn1`, the IC50 was 700 nM.

For `O=C(N[C@@]12CCC[C@@](C#Cc3ncccc3F)(CC1)C2)c1cnccn1`, the IC50 was 9.3 nM.

Work on `Cc1cncc(C(=O)NC23CC4CC(CC(C#Cc5cccnc5)(C4)C2)C3)n1` yielded an IC50 of 3.8 nM.

Compound `O=C(NC12CC3CC(CC(C#Cc4cnccn4)(C3)C1)C2)c1cncc(F)c1` has an IC50 of 30 nM.
